Laboratory results from patent publication US8802597B2, “Herbicidal pyrimidines” (E I du Pont de Nemours and Company, priority 2003, dated 2014).

Key:
Assay type in all cases: in vivo
[1] = tested on: early watergrass (Echinochloa oryzoides); assay: Test E flooded paddy water application; details: Flood, 21 days, scale 0 to 100 (0 no effect, 100 complete control)
Text: (§1) Three plastic pots (ca. 16-cm diameter) per rate were partially filled with sterilized Tama silt loam soil comprising a 35:50:15 ratio of sand, silt and clay and 2.6% organic matter. Separate plantings for each of the three pots were as follows. Seeds from the U.S. of ducksalad (Heteranthera limosa), smallflower umbrella sedge (Cyperus difformis) and purple redstem (Ammannia coccinea), were planted into one 16-cm pot for each rate. Seeds from the U.S. of rice flatsedge (Cyperus iria), bearded (brdd.) sprangletop (Leptochloa fusca ssp. fascicularis), one stand of 9 or 10 water seeded rice seedlings (Oryza sativa cv. ‘Japonica-M202’), and one stand of 6 transplanted rice seedlings (Oryza sativa cv. ‘Japonica-M202’) were planted into one 16-cm pot for each rate. Seeds from the U.S. of barnyardgrass (Echinochloa crus-galli), late watergrass (Echinochloa oryzicola), early watergrass (Echinochloa oryzoides) and junglerice (Echinochloa colona) were planted into one 16-cm pot for each rate. Plantings were sequential so that crop and weed species were at the 2.0 to 2.5-leaf stage at time of treatment.
(§2) Potted plants were grown in a greenhouse with day/night temperature settings of 29.5/26.7° C., and supplemental balanced lighting was provided to maintain a 16-hour photoperiod. Test pots were maintained in the greenhouse until test completion.
(§3) At time of treatment, test pots were flooded to 3 cm above the soil surface, treated by application of test compounds directly to the paddy water, and then maintained at that water depth for the duration of the test. Effects of treatments on rice and weeds were visually evaluated by comparison to untreated controls after 21 days. Plant response ratings, summarized in Table E, are based on a scale of 0 to 100 where 0 is no effect and 100 is complete control. A dash (-) response means no test result.

[2] = tested on: rice flatsedge (Cyperus iria); assay: Test E flooded paddy water application; details: Flood, 21 days, scale 0 to 100 (0 no effect, 100 complete control)
Text: as §1, §2, §3

[3] = tested on: water seeded rice seedlings (Oryza sativa cv. ‘Japonica-M202’); assay: Test E flooded paddy water application; details: Flood, 21 days, scale 0 to 100 (0 no effect, 100 complete control)
Text: as §1, §2, §3

[4] = tested on: late watergrass (Echinochloa oryzicola); assay: Test E flooded paddy water application; details: Flood, 21 days, scale 0 to 100 (0 no effect, 100 complete control)
Text: as §1, §2, §3

[5] = tested on: bearded (brdd.) sprangletop (Leptochloa fusca ssp. fascicularis); assay: Test E flooded paddy water application; details: Flood, 21 days, scale 0 to 100 (0 no effect, 100 complete control)
Text: as §1, §2, §3

[6] = tested on: ducksalad (Heteranthera limosa); assay: Test E flooded paddy water application; details: Flood, 21 days, scale 0 to 100 (0 no effect, 100 complete control)
Text: as §1, §2, §3

[7] = tested on: smallflower umbrella sedge (Cyperus difformis); assay: Test E flooded paddy water application; details: Flood, 21 days, scale 0 to 100 (0 no effect, 100 complete control)
Text: as §1, §2, §3

[8] = tested on: junglerice (Echinochloa colona); assay: Test E flooded paddy water application; details: Flood, 21 days, scale 0 to 100 (0 no effect, 100 complete control)
Text: as §1, §2, §3

[9] = tested on: transplanted rice seedlings (Oryza sativa cv. ‘Japonica-M202’); assay: Test E flooded paddy water application; details: Flood, 21 days, scale 0 to 100 (0 no effect, 100 complete control)
Text: as §1, §2, §3

[10] = tested on: purple redstem (Ammannia coccinea); assay: Test E flooded paddy water application; details: Flood, 21 days, scale 0 to 100 (0 no effect, 100 complete control)
Text: as §1, §2, §3

[11] = tested on: morningglory (Ipomoea spp.); assay: Test A pre/postemergence
Outline: (§4)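 Compared with untreated controls, treated plants were visually rated for injury on a 0 (none) to 100 (complete control) scale about ten days after spraying. Pre- and postemergence applications used one solvent/surfactant formulation; postemergence plants measured 2–10 cm.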

[12] = tested on: giant foxtail (Setaria faberi); assay: Test A pre/postemergence
Outline: as §4

[13] = tested on: redroot pigweed (Amaranthus retroflexus); assay: Test A pre/postemergence
Outline: as §4

[14] = tested on: crabgrass (Digitaria sanguinalis); assay: Test A pre/postemergence
Outline: as §4

[15] = tested on: velvetleaf (Abutilon theophrasti); assay: Test A pre/postemergence
Outline: as §4

[16] = tested on: barnyardgrass (Echinochloa crus-galli); assay: Test A pre/postemergence
Outline: as §4

[17] = Postemergence, 125 g ai/ha, 0 to 100 scale (0 no effect, 100 complete control)
[18] = Postemergence, 500 g ai/ha, 0 to 100 scale (0 no effect, 100 complete control)
[19] = Preemergence, 125 g ai/ha, 0 to 100 scale where 0 is no effect and 100 is complete control, approximately ten days
[20] = Preemergence, 500 g ai/ha, 0 to 100 scale where 0 is no effect and 100 is complete control, approximately ten days

CCOC(=O)c1nc(-c2ccc(F)cc2)nc(N)c1Br [Compound 63]
Watergrass, Early plant response rating ([1]; 32 g ai/ha): 0 | Watergrass, Early plant response rating ([1]; 64 g ai/ha): 0 | Watergrass, Early plant response rating ([1]; 125 g ai/ha): 0 | Watergrass, Early plant response rating ([1]; 250 g ai/ha): 0 | Plant response rating, Watergrass, Early ([1]; 16 g ai/ha): 0 | Flatsedge, Rice plant response rating ([2]; 32 g ai/ha): 75 | Flatsedge, Rice plant response rating ([2]; 64 g ai/ha): 75 | Flatsedge, Rice plant response rating ([2]; 125 g ai/ha): 85 | Flatsedge, Rice plant response rating ([2]; 250 g ai/ha): 85 | Plant response rating, Flatsedge, Rice ([2]; 16 g ai/ha): 60 | Rice, Water Seeded plant response rating ([3]; 32 g ai/ha): 0 | Rice, Water Seeded plant response rating ([3]; 64 g ai/ha): 0 | Rice, Water Seeded plant response rating ([3]; 125 g ai/ha): 20 | Rice, Water Seeded plant response rating ([3]; 250 g ai/ha): 30 | Plant response rating, Rice, Water Seeded ([3]; 16 g ai/ha): 0 | Watergrass, Late plant response rating ([4]; 32 g ai/ha): 0 | Watergrass, Late plant response rating ([4]; 64 g ai/ha): 0 | Watergrass, Late plant response rating ([4]; 125 g ai/ha): 0 | Watergrass, Late plant response rating ([4]; 250 g ai/ha): 0 | Plant response rating, Watergrass, Late ([4]; 16 g ai/ha): 0 | Sprangletop, Brdd. plant response rating ([5]; 32 g ai/ha): 0 | Sprangletop, Brdd. plant response rating ([5]; 64 g ai/ha): 40 | Sprangletop, Brdd. plant response rating ([5]; 125 g ai/ha): 40 | Sprangletop, Brdd. plant response rating ([5]; 250 g ai/ha): 65 | Plant response rating, Sprangletop, Brdd. ([5]; 16 g ai/ha): 0 | Ducksalad plant response rating ([6]; 32 g ai/ha): 30 | Ducksalad plant response rating ([6]; 64 g ai/ha): 65 | Ducksalad plant response rating ([6]; 125 g ai/ha): 100 | Ducksalad plant response rating ([6]; 250 g ai/ha): 100 | Plant response rating, Ducksalad ([6]; 16 g ai/ha): 30 | Sedge, Umbrella plant response rating ([7]; 32 g ai/ha): 75 | Sedge, Umbrella plant response rating ([7]; 64 g ai/ha): 75 | Sedge, Umbrella plant response rating ([7]; 125 g ai/ha): 75 | Sedge, Umbrella plant response rating ([7]; 250 g ai/ha): 80 | Plant response rating, Sedge, Umbrella ([7]; 16 g ai/ha): 70 | Junglerice plant response rating ([8]; 32 g ai/ha): 0 | Junglerice plant response rating ([8]; 64 g ai/ha): 0 | Junglerice plant response rating ([8]; 125 g ai/ha): 0 | Junglerice plant response rating ([8]; 250 g ai/ha): 30 | Plant response rating, Junglerice ([8]; 16 g ai/ha): 0 | Rice, Transplanted plant response rating ([9]; 32 g ai/ha): 0 | Rice, Transplanted plant response rating ([9]; 64 g ai/ha): 0 | Rice, Transplanted plant response rating ([9]; 125 g ai/ha): 0 | Rice, Transplanted plant response rating ([9]; 250 g ai/ha): 0 | Plant response rating, Rice, Transplanted ([9]; 16 g ai/ha): 0 | Redstem plant response rating ([10]; 32 g ai/ha): 65 | Redstem plant response rating ([10]; 64 g ai/ha): 65 | Redstem plant response rating ([10]; 125 g ai/ha): 75 | Redstem plant response rating ([10]; 250 g ai/ha): 75 | Plant response rating, Redstem ([10]; 16 g ai/ha): 65 | Plant response rating, Morningglory [11, 17]: 20 | Plant response rating, Morningglory [11, 18]: 25 | Plant response rating, Morningglory [11, 19]: 0 | Plant response rating, Morningglory [11, 20]: 0 | Plant response rating, Foxtail, Giant [12, 17]: 0 | Plant response rating, Foxtail, Giant [12, 18]: 0 | Plant response rating, Foxtail, Giant [12, 19]: 0 | Plant response rating, Foxtail, Giant [12, 20]: 35 | Plant response rating, Pigweed [13, 17]: 40 | Plant response rating, Pigweed [13, 18]: 65 | Plant response rating, Pigweed [13, 19]: 0 | Plant response rating, Pigweed [13, 20]: 80 | Plant response rating, Crabgrass [14, 17]: 0 | Plant response rating, Crabgrass [14, 18]: 0 | Plant response rating, Crabgrass [14, 19]: 0 | Plant response rating, Crabgrass [14, 20]: 75 | Plant response rating, Velvetleaf [15, 17]: 55 | Plant response rating, Velvetleaf [15, 18]: 70 | Plant response rating, Velvetleaf [15, 19]: 0 | Plant response rating, Velvetleaf [15, 20]: 15 | Plant response rating, Barnyardgrass [16, 17]: 0 | Plant response rating, Barnyardgrass [16, 18]: 0 | Plant response rating, Barnyardgrass [16, 19]: 0 | Plant response rating, Barnyardgrass [16, 20]: 40
